Test results taken from PubChem BioAssay AID248 (DTP/NCI, 2004).
Several values for one entry are separate records, joined by “and”; a condition that tells them apart may be missing. Equal values may be shown once. Toxic doses and inconclusive results are not listed. Cut-off read from the data, not from the text of the source: active = T/C of 150% or more; inactive = T/C below 125%.

System: L1210 leukemia ip in BDF1 mice, survival T/C
Test: NCI In Vivo Anticancer Drug Screen. Data for tumor model L1210 Leukemia (intraperitoneal) in B6D2F1 (BDF1) mice
Settings: endpoint: mean survival time, higher = longer survival
Procedure, shortened: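 Antitumor effect is assessed in tumor-bearing animals. Survival in the compound arm is compared with a vehicle-dosed control arm and expressed as their quotient.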

[1] = dose: 100.0 mg/kg/injection, schedule: Q04DX002 (ip), vehicle: saline with Tween-80
[2] = dose: 200.0 mg/kg/injection, schedule: Q04DX002 (ip), vehicle: saline with Tween-80
[3] = dose: 400.0 mg/kg/injection, schedule: Q04DX002 (ip), vehicle: saline with Tween-80
[4] = dose: 100.0 mg/kg/injection, schedule: Q01DX001 (ip), vehicle: Klucel (hydroxypropylcellulose) (HPC)
[5] = dose: 200.0 mg/kg/injection, schedule: Q01DX001 (ip), vehicle: Klucel (hydroxypropylcellulose) (HPC)
[6] = dose: 100.0 mg/kg/injection, schedule: Q04DX003 (ip), vehicle: saline with Tween-80
[7] = dose: 100.0 mg/kg/injection, schedule: Q01DX009 (ip), vehicle: saline
[8] = dose: 200.0 mg/kg/injection, schedule: Q01DX009 (ip), vehicle: saline
[9] = dose: 50.0 mg/kg/injection, schedule: Q01DX009 (ip), vehicle: saline
[10] = dose: 25.0 mg/kg/injection, schedule: Q04DX002 (ip), vehicle: Klucel (hydroxypropylcellulose) (HPC)
[11] = dose: 50.0 mg/kg/injection, schedule: Q04DX002 (ip), vehicle: Klucel (hydroxypropylcellulose) (HPC)
[12] = dose: 100.0 mg/kg/injection, schedule: Q04DX002 (ip), vehicle: Klucel (hydroxypropylcellulose) (HPC)
[13] = dose: 200.0 mg/kg/injection, schedule: Q04DX002 (ip), vehicle: Klucel (hydroxypropylcellulose) (HPC)
[14] = dose: 400.0 mg/kg/injection, schedule: Q04DX002 (ip), vehicle: Klucel (hydroxypropylcellulose) (HPC)
[15] = dose: 100.0 mg/kg/injection, schedule: Q01DX001 (ip), vehicle: carboxymethylcellulose (CMC)
[16] = dose: 200.0 mg/kg/injection, schedule: Q01DX001 (ip), vehicle: carboxymethylcellulose (CMC)
[17] = dose: 400.0 mg/kg/injection, schedule: Q01DX001 (ip), vehicle: carboxymethylcellulose (CMC)
[18] = dose: 50.0 mg/kg/injection, schedule: Q01DX001 (ip), vehicle: carboxymethylcellulose (CMC)
[19] = dose: 200.0 mg/kg/injection, schedule: Q04DX003 (ip), vehicle: saline with Tween-80

Measured: T/C

C1CCC2(CC1)CCCO2
inactive: dose: 50.0 mg/kg/injection, schedule: Q04DX002 (ip), vehicle: saline with Tween-80 87 % of control | [1] 98 % of control | [2] 106 % of control | [3] 102 % of control

COc1ccccc1-n1c(O)c(N=Nc2ccc(C)cc2)c(=O)n(-c2ccc(Cl)cc2)c1=S
inactive: [4] 106 % of control | [5] 100 % of control

O=C(N/N=C(\C=N\NC(=O)c1ccccc1)CC(O)C(O)CO)c1ccccc1 (stereo not given)
inactive: dose: 100.0 mg/kg/injection, schedule: Q04DX003 (ip), vehicle: Klucel (hydroxypropylcellulose) (HPC) 91 % of control | dose: 200.0 mg/kg/injection, schedule: Q04DX003 (ip), vehicle: Klucel (hydroxypropylcellulose) (HPC) 96 % of control | dose: 400.0 mg/kg/injection, schedule: Q04DX003 (ip), vehicle: Klucel (hydroxypropylcellulose) (HPC) 93 % of control

CCCCCC(C)n1c(C)cc(=O)n1C(C)CCCCC (stereo not given)
inactive: dose: 75.0 mg/kg/injection, schedule: Q01DX001 (ip), vehicle: other 92 % of control | dose: 150.0 mg/kg/injection, schedule: Q01DX001 (ip), vehicle: other 97 % of control

CCOC(=O)c1cc(C(=O)O)[nH]c(=O)c1C#N
inactive: [6] 97 % of control | dose: 400.0 mg/kg/injection, schedule: Q04DX003 (ip), vehicle: saline with Tween-80 95 % of control

CC(OC1OC(C(=O)O)C(O)C(O)C1O)c1ccccc1 (stereo not given)
inactive: [7] 98 % of control | [8] 97 % of control | dose: 400.0 mg/kg/injection, schedule: Q01DX009 (ip), vehicle: saline 105 % of control

Cc1cccc(NC(=O)CCc2ccc(N3C(N)=NC(N)=NC3(C)C)cc2)c1
inactive: dose: 3.13 mg/kg/injection, schedule: Q01DX009 (ip), vehicle: saline 102 % of control | dose: 6.25 mg/kg/injection, schedule: Q01DX009 (ip), vehicle: saline 94 % of control | dose: 12.5 mg/kg/injection, schedule: Q01DX009 (ip), vehicle: saline 97 % of control | dose: 25.0 mg/kg/injection, schedule: Q01DX009 (ip), vehicle: saline 96 % of control | [9] 103 % of control

C=CCOc1c(Br)cc(Br)cc1Br
inactive: dose: 12.5 mg/kg/injection, schedule: Q04DX002 (ip), vehicle: Klucel (hydroxypropylcellulose) (HPC) 96 % of control | [10] 100 % of control | [11] 86 % of control | [12] 95 % of control | [13] 89 % of control | [14] 95 % of control

Cc1ccc(NC(=O)Nc2c(C)cccc2C)cc1
inactive: [15] 95 % of control | [16] 95 % of control | [17] 103 % of control

CN(C)S(=O)(=O)N(C)C
inactive: [4] 96 % of control | [5] 102 % of control | dose: 400.0 mg/kg/injection, schedule: Q01DX001 (ip), vehicle: Klucel (hydroxypropylcellulose) (HPC) 102 % of control

O=c1[nH][nH]c(=O)c2cc3ccccc3cc12
inactive: dose: 62.5 mg/kg/injection, schedule: Q01DX009 (ip), vehicle: Klucel (hydroxypropylcellulose) (HPC) 98 % of control | dose: 125.0 mg/kg/injection, schedule: Q01DX009 (ip), vehicle: Klucel (hydroxypropylcellulose) (HPC) 105 % of control

CCOP(=O)(Nc1ccc2c(c1)Cc1c-2cc(Br)c(NC(C)=O)c1Br)OCC
inactive: [18] 97 % of control | [15] 94 % of control | [16] 105 % of control | [17] 100 % of control

C=C(C(=O)O)C(=O)O
inactive: [9] 102 % of control | [7] 116 % of control | [6] 97 % of control | [8] 100 % of control | [19] 106 % of control

COc1cc(-c2ccc(NC(=O)Nc3ccc(C4=NCCN4)cc3)c(OC)c2)ccc1NC(=O)Nc1ccc(C2=NCCN2)cc1
inactive: dose: 15.0 mg/kg/injection, schedule: Q01DX Z (ip), vehicle: carboxymethylcellulose (CMC) 104 % of control | dose: 31.0 mg/kg/injection, schedule: Q01DX Z (ip), vehicle: carboxymethylcellulose (CMC) 98 % of control | dose: 62.5 mg/kg/injection, schedule: Q01DX Z (ip), vehicle: carboxymethylcellulose (CMC) 117 % of control | dose: 125.0 mg/kg/injection, schedule: Q01DX Z (ip), vehicle: carboxymethylcellulose (CMC) 103 % of control | dose: 250.0 mg/kg/injection, schedule: Q01DX Z (ip), vehicle: water 117 % of control | dose: 500.0 mg/kg/injection, schedule: Q01DX Z (ip), vehicle: water 87 % of control

CCOC(=O)C1C=NC([N+](=O)[O-])=C1Br (stereo not given)
inactive: [10] 102 % of control | [11] 109 % of control | [12] 103 % of control and 105 % of control | [14] 93 % of control

O=c1cnc2ccccc2[nH]1
inactive: [6] 108 % of control | [19] 97 % of control

Nc1nc(N)c(N=Nc2ccccc2)c(=O)[nH]1
inactive: [18] 88 % of control | dose: 50.0 mg/kg/injection, schedule: Q04DX003 (ip), vehicle: carboxymethylcellulose (CMC) 94 % of control | [15] 90 % of control | dose: 100.0 mg/kg/injection, schedule: Q04DX003 (ip), vehicle: carboxymethylcellulose (CMC) 93 % of control | [16] 93 % of control | dose: 200.0 mg/kg/injection, schedule: Q04DX003 (ip), vehicle: carboxymethylcellulose (CMC) 94 % of control

COc1ccc(Cl)cc1NC(=O)OC/C=C/c1ccccc1
inactive: dose: 100.0 mg/kg/injection, schedule: Q01DX009 (ip), vehicle: gum acacia 96 % of control | dose: 200.0 mg/kg/injection, schedule: Q01DX009 (ip), vehicle: gum acacia 96 % of control | dose: 400.0 mg/kg/injection, schedule: Q01DX009 (ip), vehicle: gum acacia 87 % of control

C=C(Cl)CN1C(=O)c2ccccc2C1=O
inactive: [12] 93 % of control | [13] 93 % of control | [14] 101 % of control

CCn1c2ccccc2c2nnc(NCCCO)nc21
inactive: [1] 96 % of control | dose: 100.0 mg/kg/injection, schedule: Q04DX002 (ip), vehicle: saline 101 % of control | [2] 100 % of control | dose: 200.0 mg/kg/injection, schedule: Q04DX002 (ip), vehicle: saline 97 % of control | [3] 94 % of control | dose: 400.0 mg/kg/injection, schedule: Q04DX002 (ip), vehicle: saline 101 % of control

O=C(Nc1cccc([N+](=O)[O-])c1)c1cccc(C(=O)Nc2cccc([N+](=O)[O-])c2)c1
inactive: dose: 100.0 mg/kg/injection, schedule: Q01DX009 (ip), vehicle: Klucel (hydroxypropylcellulose) (HPC) 94 % of control | dose: 200.0 mg/kg/injection, schedule: Q01DX009 (ip), vehicle: Klucel (hydroxypropylcellulose) (HPC) 89 % of control | dose: 400.0 mg/kg/injection, schedule: Q01DX009 (ip), vehicle: Klucel (hydroxypropylcellulose) (HPC) 89 % of control

O=c1cnc2ccc3ccccc3c2[nH]1
inactive: [10] 97 % of control | [11] 93 % of control | [12] 90 % of control
